The values that follow come from PMC11840605, “Crystallographic and Thermodynamic Evidence of Negative Coupling in the Flavin-Dependent Tryptophan Halogenases AbeH and BorH” (ACS Omega, 2025).

Entries after “also recorded” stand apart in the source; their conditions may differ.

For assay [1], the target named is AbeH/Trp (uncultured bacterium, UniProt F6LWA5). The assay is described as follows: Isothermal titration calorimetry, FAD into AbeH preincubated with Trp. The assay is classed as binding, uncultured soil actinomycetes. More on the design: n (ITC, Table S3) / DH (ΔH, ITC, Table S3) / -TDS (-TΔS, ITC, Table S3) / DG (ΔG, ITC, Table S3): unit of the concentration uncertain. The procedure: (§1) ITC experiments were performed using a VP-ITC isothermal titration calorimeter (MicroCal) in 20 mM HEPES pH 7.5, 350 mM NaCl, 1 mM ethylenediamine tetraacetic acid (EDTA) and 15% (v/v) glycerol. Solutions of AbeH, BorH, FAD (Chem-Implex), and Trp (Acros Organics) were prepared in the same buffer and degassed under vacuum at 30 °C for 20 min before loading in the syringe or cell. To analyze formation of binary complexes, AbeH or BorH was placed inside the cell, and ligand (FAD or Trp) was injected. For ternary complex titration, one ligand was preincubated with the macromolecule for 30 min at 30 °C to form binary complexes of AbeH/FAD, AbeH/Trp, BorH/FAD, and BorH/Trp before titrating with the second ligand. To test FADH2 binding to AbeH and BorH, FAD was reduced to FADH2 using sodium dithionite and stored under N2. Formation of FADH2 by sodium dithionite was verified using absorbance and fluorescence spectrophotometry.
AbeH/Trp, sequence (F6LWA5 entry or part of it): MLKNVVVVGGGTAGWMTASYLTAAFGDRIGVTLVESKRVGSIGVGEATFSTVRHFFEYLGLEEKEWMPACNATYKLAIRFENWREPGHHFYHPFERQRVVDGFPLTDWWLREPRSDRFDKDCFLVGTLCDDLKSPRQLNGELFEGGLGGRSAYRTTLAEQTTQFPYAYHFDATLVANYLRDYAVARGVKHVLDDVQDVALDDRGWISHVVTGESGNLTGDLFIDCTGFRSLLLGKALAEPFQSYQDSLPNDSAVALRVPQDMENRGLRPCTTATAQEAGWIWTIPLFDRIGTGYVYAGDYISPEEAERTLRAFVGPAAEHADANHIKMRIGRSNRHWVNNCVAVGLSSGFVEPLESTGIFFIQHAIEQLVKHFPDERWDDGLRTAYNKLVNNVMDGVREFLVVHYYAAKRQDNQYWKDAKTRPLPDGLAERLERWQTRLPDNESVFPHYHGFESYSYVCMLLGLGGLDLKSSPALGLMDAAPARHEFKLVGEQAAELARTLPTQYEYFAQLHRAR
ITC experiments were performed with reference power set to 10 μcal/s and Milli-Q water in the reference cell. All experiments were done with a pretitration delay of 20 min, a 5 min interval between injections, and a filter period of 2 s in high feedback gain mode. All experiments were performed at 310 rpm to mix the components in cell and titrant. All other VP-ITC instrumental parameters were set to default settings. Heats of dilution for all titrants were measured by titrating ligand into buffer for binary complex titrations, and by titrating ligand into a solution containing the other ligand but no protein for ternary complex titration.
190 μM FAD (2 μL/1 and 15 μL/29 injections) into 28 μM AbeH preincubated with 16 mM Trp (Figure 4C)
190 μM FAD (2 μL/1 and 15 μL/29 injections) into 28 μM AbeH preincubated with 28 mM Trp (Figure S8)
Titrations were analyzed by manually integrating each injection, subtracting the heat of dilution, and carrying out nonlinear least-squares fit of the calorimetric binding data to a one-site model using Origin 7.0 (Origin Lab). Trp binding experiments were subtracted by point-by-point heat of dilution, and FAD and FADH2 binding experiments were subtracted using the mean heat of the last three injections. For the Trp binding data, n was fixed to 1 based on expected stoichiometry of 1:1 based on FDH crystal structures and as proposed for lower c-value titrations in the literature.[23],[25],[82] The other parameters were not constrained during fitting.
(In ITC the heat of successive injections is recorded.)

In assay [2] the target is AbeH (uncultured bacterium, UniProt F6LWA5). The assay is described as follows: FAD fluorescence quenching titration with AbeH. In kind it is binding, uncultured soil actinomycetes. The procedure:
Quenching of FAD fluorescence quenching upon binding to AbeH was measured in the absence and presence of Trp in 20 mM Tris-HCl pH 8.0 and 100 mM NaCl using a Quantmaster 40 fluorimeter (Photon Technologies International). Trp and FAD solutions were prepared in 20 mM Tris-HCl pH 8, and concentrations were determined by absorbance at 280 and 450 nm, respectively. FAD fluorescence was measured using excitation at 450 nm (4 nm slit opening) and emission set at 525 nm (6 nm slit opening) using a fluorescence cuvette to collect 50 scans, which were averaged later during data processing in Microsoft Excel. […] Raw fluorescence intensities were corrected for the buffer, Trp, and AbeH background contributions. Quenched fluorescence intensity was plotted vs AbeH concentration and fit to eq 1 using GraphPad Prism 8.0 by nonlinear regression analysis. In eq 1, F = fractional saturation, ΔF = fluorescence quenching upon AbeH/FAD complex formation (calculated from the difference of FAD fluorescence intensity at different AbeH concentration), ΔFmax = maximum fluorescence change obtained from fit, [AbeHFAD] = FAD-bound AbeH, [AbeH]T = Total AbeH concentration, [FAD]T = Total FAD concentration, KD = equilibrium dissociation constant. […]
A. Fluorescence quenching observed from binding of Apo-AbeH ([…]) to […] FAD; […]

Assay [3] concerns the target BorF. As to conditions: read-out: KD, flavin binding to BorF; cited from earlier work.
Assay [4] addresses AbeF. Conditions: read-out: KD, flavin binding to AbeF; cited from earlier work.
For assay [5], the system named is AbeH/FAD. The assay is described as follows: Isothermal titration calorimetry, Trp into AbeH preincubated with FAD. The assay is classed as binding, uncultured soil actinomycetes. As to the method: as §1, with “To test FADH2 binding to AbeH and BorH, FAD was reduced to FADH2 using sodium dithionite and stored under N2.” left out
ITC experiments were performed with reference power set to 10 μcal/s and Milli-Q water in the reference cell. […] Heats of dilution for all titrants were measured by titrating ligand into buffer for binary complex titrations, and by titrating ligand into a solution containing the other ligand but no protein for ternary complex titration. […]
Titrations were analyzed by manually integrating each injection, subtracting the heat of dilution, and carrying out nonlinear least-squares fit of the calorimetric binding data to a one-site model using Origin 7.0 (Origin Lab). […]

In assay [6] the target is BorH (uncultured bacterium, UniProt M9QSI0). As to conditions: previously shown; cited from earlier work.
BorH, sequence (M9QSI0 1-529): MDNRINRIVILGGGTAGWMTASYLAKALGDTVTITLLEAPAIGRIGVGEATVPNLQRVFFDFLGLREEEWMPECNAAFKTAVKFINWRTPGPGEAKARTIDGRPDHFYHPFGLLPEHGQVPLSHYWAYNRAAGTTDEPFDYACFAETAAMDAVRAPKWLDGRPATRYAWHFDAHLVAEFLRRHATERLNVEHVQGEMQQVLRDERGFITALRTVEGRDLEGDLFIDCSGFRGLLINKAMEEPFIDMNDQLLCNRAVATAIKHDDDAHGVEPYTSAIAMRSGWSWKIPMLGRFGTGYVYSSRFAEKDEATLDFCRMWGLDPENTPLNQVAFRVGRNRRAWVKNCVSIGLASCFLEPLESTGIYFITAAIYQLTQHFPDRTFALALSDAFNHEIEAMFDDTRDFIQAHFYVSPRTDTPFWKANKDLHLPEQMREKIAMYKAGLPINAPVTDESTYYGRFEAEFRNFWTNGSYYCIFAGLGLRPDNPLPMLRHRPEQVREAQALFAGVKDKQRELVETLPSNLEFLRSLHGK
Setting [7] is: cell AbeH/Trp (16 (unit uncertain)).
The mark [8] stands for this setting: cell AbeH/Trp (28 (unit uncertain)).

AbeH, sequence (F6LWA5 entry or part of it): as the sequence (F6LWA5 entry or part of it) above

Consider `Cc1cc2nc3c(=O)[nH]c(=O)nc-3n(C[C@H](O)[C@H](O)[C@H](O)COP(=O)(O)OP(=O)(O)OC[C@H]3O[C@@H](n4cnc5c(N)ncnc54)[C@H](O)[C@@H]3O)c2cc1C` [FAD], for which the Kd was 6.3 ± 2.4 µM in assay [1] (Apparent KD, FAD binding to AbeH/Trp, ITC, AbeH preincubated with Trp, depends on the Trp:AbeH molar ratio); 2.1 µM in assay [1] (KD, FAD into AbeH/Trp, ITC, experiment of Figure 4C, 28 μM AbeH preincubated with 16 mM Trp); 1600 ± 400 nM in assay [2]; 100 nM in assay [3]; 800 nM in assay [4]. Further, in assay [1] (ITC), the “Heat of binding, titration of FAD into AbeH/Trp, in words” value is given as “endothermic; also recorded: heat being absorbed rather than released”. Further, the entries for the “-TDS (-TΔS, ITC, Table S3)” value in assay [1] (setting [7]) and in assay [1] (setting [8]) were -15.1 kcal/mol and -13.1 kcal/mol, respectively. In addition, the results for the “DG (ΔG, ITC, Table S3)” value in assay [1] (setting [7]) and in assay [1] (setting [8]) were -7.8 kcal/mol and -7.2 kcal/mol, respectively. Besides, the “DH (ΔH, ITC, Table S3)” value in assay [1] (setting [7]) turned out to be 7.3 ± 0.4 kcal/mol; in assay [1] (setting [8]) it was 5.9 ± 1.6 kcal/mol. In addition, the “n (ITC, Table S3)” value in assay [1] (setting [7]) turned out to be 0.58 ± 0.02; in assay [1] (setting [8]) it was 0.6 ± 0.1.
As to `N[C@@H](Cc1c[nH]c2ccccc12)C(=O)O` [Tryptophan, L-tryptophan], the “Binding of Trp to preincubated AbeH/FAD by ITC, in words” value in assay [5] (27 mM Trp into 48 μM AbeH preincubated with 3.3 mM FAD, listed as Trp) was “No binding was observed; also recorded: no evidence of Trp binding”. Also, the “KD, Trp binding to AbeH/FAD, ITC” value in assay [5] (AbeH preincubated with FAD) is listed as “no binding”. For the same compound, in assay [6], the “Halogenation of the substrate by BorH, in words” value is “brominate and chlorinate”.
